Data set [1] can be described thus: Lipophilicity determination by RP-HPLC (capacity factor log k). As to conditions: isocratic, MeOH 60%/H2O 40%, C18. Type of data set: physicochemical. Put shortly: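 Isocratic RP-HPLC on C18 column, MeOH/H2O 60:40, 1.0 mL/min, column 40 °C, UV detection 210 nm. Dead time taken from KI; k = (tR − tD)/tD, with log k used as lipophilicity index converted to log P scale.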

In data set [2] the test system is human monocytic leukemia THP-1 cells. Kind of data set: In vitro cytotoxicity assay (LDH). Type of data set: cell-based. The following applies: treatment with 20 µmol/L, 24 h. The procedure:
Human monocytic leukemia THP-1 cells were obtained from the European Collection of Cell Cultures (ECACC, Salisbury, UK; Methods of characterization: DNA Fingerprinting (Multilocus probes) and isoenzyme analysis). These cells were routinely cultured in RPMI 1640 (Lonza, Verviers, Belgium) medium supplemented with 10% fetal bovine serum (FBS, Sigma-Aldrich), 2% L-glutamine, 1% penicillin and streptomycin (Lonza, Verviers, Belgium) at 37 °C with 5% CO2. Cells were passaged at approximately 1 week intervals. Cells were routinely tested for the absence of mycoplasma (Hoechst 33258 staining method). The tested compounds were dissolved in DMSO (Sigma-Aldrich) and added in five increasing concentrations to the cell suspension in the culture medium. The maximum concentration of DMSO in the assays never exceeded 0.1%. Subsequently, the cells were incubated for 24 h at 37 °C with 5% CO2 to various compound concentrations ranging from 0.37 to 20 μmol/L in RPMI 1640 medium. Cell toxicity was determined using a Cytotoxicity Detection Kit^PLUS Lactate dehydrogenase (LDH) assay kit (Roche Diagnostics, Mannheim, Germany) according to the manufacturer’s instructions, as described previously. […] All data were evaluated using GraphPad Prism 5.00 software (GraphPad Software, San Diego, CA, USA).

Data set [3] concerns M. smegmatis ATCC 700084. Put plainly: In vitro antimycobacterial evaluation (broth dilution MIC). Type of data set: cell-based, Mycobacterium smegmatis. As to conditions: Mycolicibacterium smegmatis, ATCC700084, 72 h; M. smegmatis ATCC 700084, 3 days, 37 °C.
Data set [4] deals with Mycobacterium marinum CAMP 5644. The description is as above. The following applies: Mycobacterium marinum, CAMP5644, 504 h, M. marinum CAMP 5644, 21 days, 28 °C. In kind it is cell-based.
Data set [5] has as its system methicillin-resistant Staphylococcus aureus SA 630. Put plainly: In vitro antibacterial susceptibility testing (broth dilution MIC). Type of data set: cell-based. The following applies: MRSA, clinical isolate SA 630, 24 h, 37 °C. Background: In broth dilution the organism is exposed to a series of concentrations in liquid medium.
Data set [6] has as its system Staphylococcus aureus ATCC 29213. Described as above. Type of data set: cell-based. The following applies: ATCC29213; Staphylococcus aureus ATCC 29213, 24 h, 37 °C.
The subject of data set [7] is methicillin-resistant Staphylococcus aureus (MRSA) 63718. The description is as above. The following applies: clinical isolate MRSA 63718, 24 h, 37 °C. In kind it is cell-based.
In data set [8] the test system is methicillin-resistant Staphylococcus aureus SA 3202. The description is as above. Type of data set: cell-based. As to conditions: MRSA, read-out: MIC MRSA 3202.
Data set [9] has as its system photosynthetic electron transport (PET) in spinach chloroplasts. Put plainly: Inhibition of photosynthetic electron transport (PET) in spinach chloroplasts. The following applies: DCPIP photoreduction. Type of data set: biochemical, Spinacia oleracea L. In short, it runs like this: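 Chloroplasts in pH 7.2 phosphate buffer with sucrose, MgCl2, NaCl; chlorophyll 30 mg/L, halogen-lamp illumination at 22 °C, compounds in DMSO. PET followed spectrophotometrically as DCPIP photoreduction; IC50 is molar concentration giving 50% drop in oxygen evolution rate versus untreated control.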

Data set [10] has as its system M. kansasii DSM 44162. Put plainly: In vitro antimycobacterial evaluation (broth dilution MIC). Type of data set: cell-based. The following applies: Mycobacterium kansasii, DSM44162, 168 h; M. kansasii DSM 44162, 7 days, 37 °C.
The mark [11] stands for this setting: clinical isolate SA 3202, 24 h, 37 °C.

Converted amounts (≈) assume the structure as drawn. Like-named read-outs stand apart in the source and are kept apart here.

In the case of `O=C(Nc1ccccc1Cl)c1c(O)ccc2ccccc12` [Compound 5a, N-(2-chlorophenyl)-2-hydroxynaphthalene-1-carboxamide], the log k in [1] was 0.8984. Besides, the “lethal effect on THP-1 cells” value in data set [2] is “did not lead to significant lethal effects”. The MIC in [3] was 107 µM (≈ 31.9 µg/mL); in data set [4], 107 µM (≈ 31.9 µg/mL); in data set [5], > 860 µM; in data set [6], 215 µM (≈ 64 µg/mL); in data set [7], 860 µM (≈ 256 µg/mL); in [8] (24 h), > 860 µM. In addition, inhibition of growth in [10] (MIC) required 107 µM (≈ 31.9 µg/mL). In addition, in data set [9], half-maximal inhibition (IC50) was put at 49.6 µM.

For `O=C(Nc1ccccc1C(F)(F)F)c1c(O)ccc2ccccc12` [Compound 7a, 2-Hydroxy-N-(2-trifluoromethylphenyl)naphthalene-1-carboxamide], in [1], the log k was 0.8353. Moreover, the “lethal effect on THP-1 cells” value in [2] is “did not lead to significant lethal effects”. Further, the minimal inhibitory concentration (MIC) in data set [3] came out at 386 µM (≈ 128 µg/mL); in [4] it was 96.6 µM (≈ 32 µg/mL); in [5], 97.1 µM (≈ 32.2 µg/mL); in data set [6], 97.1 µM (≈ 32.2 µg/mL); in data set [7], 193 µM (≈ 63.9 µg/mL); in data set [8] (setting [11]), 193 µM (≈ 63.9 µg/mL). In data set [10], this compound showed an MIC of 96.6 µM (≈ 32 µg/mL). Further, in data set [9], the IC50 was determined as 153 µM.

Compound `O=C(Nc1cccc(C(F)(F)F)c1)c1c(O)ccc2ccccc12` [Compound 7b, 2-Hydroxy-N-(3-trifluoromethylphenyl)naphthalene-1-carboxamide] registered a log k in data set [1] of 0.9411. The “lethal effect on THP-1 cells” value in [2] is on record as “did not lead to significant lethal effects”. Further, the MIC in data set [3] was > 748 µM; in [4], > 748 µM; in data set [5], 374 µM (≈ 124 µg/mL); in data set [6], > 748 µM; in [7], 187 µM (≈ 62 µg/mL); in data set [8] (setting [11]), 94 µM (≈ 31.1 µg/mL). In [10], the MIC worked out at 93.5 µM (≈ 31 µg/mL). The compound also returned an IC50 in data set [9] of 45.6 µM.

As a reminder, the MIC is the lowest concentration that inhibits growth of the organism. In general, IC50 refers to the concentration that gives 50% inhibition. Low readings indicate higher potency, high ones lower potency.
